According to patent US20090053807A1 (Novo Nordisk A/S, priority 1998, published 2009):
pKd: −log10 of the molar value. “Also recorded” adds a separate entry of the source. Positions of bridges follow the written chain, without caps; N, C: chain ends. Non-standard residues stand in square brackets, D forms with d. Residues, ends and D or L forms follow the SMILES beside them. Chains are numbered I, II in the order given. No end group written: not given here. *: point of attachment. aminooxyacetyl = NOCC(=O)*; Glyoxylyl = O=CC(=O)*

Each compound was assayed on FDC-P2 cells expressing the IL-3 and human IGF-1R receptors (assay: not given). Conditions: FDC-P2 cells, agonist format; Table 15.
In the case of “WLDQERAWLWCEISGRGCLSGGSGGSGGSGGSGSLDESFYDWFERQLGKK (disulfide 11-18 (inferred)) [D815-RP9 12 aa]”, the “ED50 Growth” value was 10,000 nM.
For “WLDQERAWLWCEISGRGCLSGGSGGSGSLDESFYDWFERQLGKK (disulfide 11-18 (inferred)) [D815-RP9 6 aa]”, the “ED50 Growth” value was 50 nM.

Same assay, conditions: FDC-P2 cells; Table 15
“WLDQERAWLWCEISGRGCLSGGSGGSGGSGGSGSLDESFYDWFERQLGKK (disulfide 11-18 (inferred)) [D815-RP9 12 aa]” was tested, and the “Max Action” value was 100%.
In the case of “WLDQERAWLWCEISGRGCLSGGSGGSGSLDESFYDWFERQLGKK (disulfide 11-18 (inferred)) [D815-RP9 6 aa]”, the “Max Action” value was over 50%.

The compounds below were run on free fat cells (assay: Adipocyte / free fat cell (FFC) assay, 3H glucose incorporation into lipid). Conditions: not given.
In the case of (ESFYDWFERQLGK)2-23 [Peptide S415], the “activity in the FFC assay / at IR” value was “highly potent”.
In the case of “S453: Site 1-Site 2 heterodimer, C-N linkage (GSLDESFYDWFERQLGKKK[Glyoxylyl][Glyoxylyl]KEWLDQEWAWVQCEVYGRGCPSEE; disulfide 34-41 (inferred); not fully specified (residue 20, bridges); printed as GSLDESFYDWFERQLGKKK-Ald-17-Ald-KEWLDQ EWAWVQCEVYGRGCPSEE; also: Site 1-Site 2 heterodimer, C-N linkage via linker 17) [Peptide S453]”, the “activity in the FFC assay / at IR” value was “antagonist activity; also recorded: antagonist properties”.

Same assay, conditions: FFC assay potency; number of + grades agonist activity
With `CC(C)C[C@H](NC(=O)[C@H](CCC(N)=O)NC(=O)[C@H](CCCNC(=N)N)NC(=O)[C@H](CCC(=O)O)NC(=O)[C@H](Cc1ccccc1)NC(=O)[C@H](Cc1c[nH]c2ccccc12)NC(=O)[C@H](CC(=O)O)NC(=O)[C@H](Cc1ccc(O)cc1)NC(=O)[C@H](Cc1ccccc1)NC(=O)[C@H](CO)NC(=O)[C@H](CCC(=O)O)NC(=O)[C@H](CC(=O)O)NC(=O)[C@H](CC(C)C)NC(=O)[C@H](CO)NC(=O)CNC(=O)CNC(=O)[C@H](CO)NC(=O)[C@@H]1CSSC[C@H](NC(=O)[C@H](CC(C)C)NC(=O)[C@@H](N)Cc2c[nH]cn2)C(=O)N[C@@H](C(C)C)C(=O)N[C@@H](CC(C)C)C(=O)N[C@@H](CCC(=O)O)C(=O)N[C@@H](CCC(=O)O)C(=O)N[C@@H](CC(C)C)C(=O)N[C@@H](Cc2ccccc2)C(=O)N[C@@H](Cc2c[nH]c3ccccc23)C(=O)NCC(=O)N[C@@H](C)C(=O)N[C@@H](CO)C(=O)N[C@@H](CC(C)C)C(=O)N[C@@H](Cc2ccccc2)C(=O)NCC(=O)N[C@@H](Cc2ccc(O)cc2)C(=O)N1)C(=O)O` [Peptide S521] (HELM PEPTIDE1{H.L.C.V.L.E.E.L.F.W.G.A.S.L.F.G.Y.C.S.G.G.S.L.D.E.S.F.Y.D.W.F.E.R.Q.L}$PEPTIDE1,PEPTIDE1,3:R3-18:R3$$$V2.0; N-terminus and C-terminus assumed; bridges inferred) the FEC was “+”.

Same assay, conditions: FFC assay potency; number of + grades agonist potency
For `CC(C)[C@H](NC(=O)[C@H](Cc1ccccc1)NC(=O)[C@H](Cc1c[nH]c2ccccc12)NC(=O)[C@H](CC(=O)O)NC(=O)[C@H](Cc1ccc(O)cc1)NC(=O)[C@H](Cc1ccccc1)NC(=O)[C@H](CC(N)=O)NC(=O)[C@H](CCC(=O)O)NC(=O)[C@H](Cc1c[nH]cn1)NC(=O)[C@@H](N)Cc1ccccc1)C(=O)N[C@@H](CCCNC(=N)N)C(=O)N[C@@H](CCC(N)=O)C(=O)N[C@H](C(=O)N[C@@H](CO)C(=O)N[C@@H](CCCCN)C(=O)N[C@@H](CCCCN)C(=O)N[C@@H](CNC(=O)CON)C(N)=O)C(C)C` [Peptide S131], the FEC was “+”.
`CC(C)C[C@H](NC(=O)[C@H](CCC(=O)O)NC(=O)[C@H](C)NC(=O)[C@@H](NC(=O)[C@H](Cc1ccccc1)NC(=O)[C@H](Cc1c[nH]c2ccccc12)NC(=O)[C@H](CC(=O)O)NC(=O)[C@H](Cc1ccc(O)cc1)NC(=O)[C@H](Cc1ccccc1)NC(=O)[C@H](CC(N)=O)NC(=O)[C@H](C)NC(=O)[C@H](CC(N)=O)NC(=O)[C@H](CCCNC(=N)N)NC(=O)[C@H](CCC(N)=O)NC(=O)[C@H](CC(C)C)NC(=O)[C@H](Cc1c[nH]c2ccccc12)NC(=O)[C@H](CC(=O)O)NC(=O)[C@@H](NC(=O)[C@H](CCCNC(=N)N)NC(=O)CNC(=O)[C@@H](N)CNC(=O)CON)C(C)C)C(C)C)C(=O)NCC(N)=O` [Peptide S245] was tested, and the FEC was “+”.
`CC(C)C[C@@H]1NC(=O)[C@H](CO)NC(=O)[C@H](C)NC(=O)CNC(=O)CNC(=O)[C@H](Cc2ccccc2)NC(=O)[C@H](CC(C)C)NC(=O)[C@H](CCC(=O)O)NC(=O)[C@H](CCC(N)=O)NC(=O)[C@H](CC(C)C)NC(=O)[C@H](Cc2ccccc2)NC(=O)[C@@H](NC(=O)[C@H](CC(C)C)NC(=O)[C@@H]2CCCN2)CSSC[C@@H](C(=O)N[C@@H](CO)C(=O)NCC(=O)O)NC(=O)[C@H](Cc2ccc(O)cc2)NC(=O)CNC(=O)CNC1=O` [Peptide S262] (HELM PEPTIDE1{P.L.C.F.L.Q.E.L.F.G.G.A.S.L.G.G.Y.C.S.G}$PEPTIDE1,PEPTIDE1,3:R3-18:R3$$$V2.0; N-terminus and C-terminus assumed; bridges inferred) showed an FEC of 0.
Compound `CC[C@H](C)[C@@H]1NC(=O)[C@H](CCC(=O)O)NC(=O)[C@@H](NC(=O)[C@H](Cc2c[nH]c3ccccc23)NC(=O)[C@@H](NC(=O)[C@H](Cc2c[nH]c3ccccc23)NC(=O)[C@H](C)NC(=O)[C@H](CCCNC(=N)N)NC(=O)[C@H](CCC(=O)O)NC(=O)[C@H](CCC(N)=O)NC(=O)[C@H](CCC(=O)O)NC(=O)[C@H](CC(C)C)NC(=O)[C@@H](N)Cc2c[nH]c3ccccc23)[C@@H](C)CC)CSSC[C@@H](C(=O)N[C@@H](CCCNC(=N)N)C(=O)N[C@@H](C)C(=O)O)NC(=O)CNC(=O)[C@H](CO)NC(=O)CNC(=O)[C@H](CCC(N)=O)NC1=O` [Peptide S263] (HELM PEPTIDE1{W.L.E.Q.E.R.A.W.I.W.C.E.I.Q.G.S.G.C.R.A}$PEPTIDE1,PEPTIDE1,11:R3-18:R3$$$V2.0; N-terminus and C-terminus assumed; bridges inferred) has an FEC of 0.
In the case of `CC[C@@H](C)[C@@H](NC(=O)[C@H](CCC(=O)O)NC(=O)[C@H](CC(=O)O)NC(=O)[C@H](Cc1ccccc1)NC(=O)[C@H](Cc1c[nH]c2ccccc12)NC(=O)[C@H](CC(=O)O)NC(=O)[C@H](Cc1ccc(O)cc1)NC(=O)[C@H](Cc1ccccc1)NC(=O)[C@H](CCC(=O)O)NC(=O)C(C)(C)NC(=O)[C@H](CC(=O)O)NC(=O)C1(NC(=O)[C@@H](N)CC(=O)O)Cc2ccccc2C1)C(=O)N1CCC[C@H]1C(=O)N[C@H](CCC(N)=O)C(N)=O` [Peptide S319] (HELM PEPTIDE1{D.[O=C(C1(N[*:1])Cc2ccccc2C1)[*:2]].D.[Aib].E.F.Y.D.W.F.D.E.[dI].P.[dQ].[am]}$$$$V2.0), the FEC was 0.
`CC[C@@H](C)[C@@H](NC(=O)[C@H](CCC(=O)O)NC(=O)[C@H](CC(=O)O)NC(=O)[C@H](Cc1ccccc1)NC(=O)[C@H](Cc1c[nH]c2ccccc12)NC(=O)[C@H](CC(=O)O)NC(=O)[C@H](Cc1ccc(O)cc1)NC(=O)[C@H](Cc1ccccc1)NC(=O)[C@@H]1C[C@@H](O)CN1C(=O)[C@H](CC(=O)O)NC(=O)[C@H](CCCNC(=N)N)NC(=O)[C@@H](CCC(=O)O)NC(=O)[C@@H](N)Cc1ccc(O)cc1)C(=O)NCC(=O)NCC(N)=O` [Peptide S321] gave an FEC of 0.
`CC[C@@H](C)[C@@H](NC(=O)[C@H](CCC(=O)O)NC(=O)[C@H](CC(=O)O)NC(=O)[C@H](Cc1ccccc1)NC(=O)[C@H](Cc1c[nH]c2ccccc12)NC(=O)[C@H](CC(=O)O)NC(=O)[C@H](Cc1ccc(O)cc1)NC(=O)[C@H](Cc1ccccc1)NC(=O)[C@@H]1C[C@@H](O)CN1C(=O)[C@H](CC(=O)O)NC(=O)[C@H](CCCNC(=N)N)NC(=O)[C@H](Cc1c[nH]c2ccccc12)NC(=O)[C@@H](N)CCC(=O)O)C(=O)N1C[C@H](O)C[C@H]1C(=O)N[C@H](CCC(=O)O)C(N)=O` [Peptide S322] (HELM PEPTIDE1{E.W.R.D.[Hyp].F.Y.D.W.F.D.E.[dI].[Hyp].[dE].[am]}$$$$V2.0) showed an FEC of 0.
With `CC(C)C[C@@H]1NC(=O)[C@H](CO)NC(=O)[C@H](C)NC(=O)CNC(=O)[C@H](Cc2c[nH]c3ccccc23)NC(=O)[C@H](Cc2ccccc2)NC(=O)[C@H](CC(C)C)NC(=O)[C@H](CCC(=O)O)NC(=O)[C@H](CCC(=O)O)NC(=O)[C@H](CC(C)C)NC(=O)[C@H](C(C)C)NC(=O)[C@@H](NC(=O)[C@H](CC(C)C)NC(=O)[C@H](Cc2c[nH]cn2)NC(=O)[C@@H](N)CCCCN)CSSC[C@@H](C(=O)N[C@@H](CO)C(=O)NCC(=O)N[C@@H](CCCCN)C(=O)N[C@@H](CCCCN)C(N)=O)NC(=O)[C@H](Cc2ccc(O)cc2)NC(=O)CNC(=O)[C@H](Cc2ccccc2)NC1=O` [Peptide S331] (HELM PEPTIDE1{K.H.L.C.V.L.E.E.L.F.W.G.A.S.L.F.G.Y.C.S.G.K.K.[am]}$PEPTIDE1,PEPTIDE1,4:R3-19:R3$$$V2.0) the FEC was 0.
For “S326 (GIISQSCPESFYDWFAGQVSDPWWCW) [Peptide S326]”, the FEC was “−”.
“S419 (chain 1 K(aminooxyacetyl)EWLDQEWAWVQCEVYGRGCPSEE; chain 2 K(aminooxyacetyl)EWLDQEWAWVQCEVYGRGCPSEE; disulfide I:13-I:20, II:13-II:20 (inferred); not fully specified (bridges); also: dimer, the two chains joined N-terminus to N-terminus through linker 14 at the side chain of residue 1) [Peptide S419]” showed an FEC of 0.

Each compound was assayed against T1, human insulin receptor (HIR) (Homo sapiens, UniProt P06213) (assay: Insulin receptor binding, competition with 125I-labeled insulin (radio-receptor assay)). Conditions: HIR binding affinity of synthetic peptides.
T1 construct: made in house
T1 sequence (P06213 28-758 limits assumed): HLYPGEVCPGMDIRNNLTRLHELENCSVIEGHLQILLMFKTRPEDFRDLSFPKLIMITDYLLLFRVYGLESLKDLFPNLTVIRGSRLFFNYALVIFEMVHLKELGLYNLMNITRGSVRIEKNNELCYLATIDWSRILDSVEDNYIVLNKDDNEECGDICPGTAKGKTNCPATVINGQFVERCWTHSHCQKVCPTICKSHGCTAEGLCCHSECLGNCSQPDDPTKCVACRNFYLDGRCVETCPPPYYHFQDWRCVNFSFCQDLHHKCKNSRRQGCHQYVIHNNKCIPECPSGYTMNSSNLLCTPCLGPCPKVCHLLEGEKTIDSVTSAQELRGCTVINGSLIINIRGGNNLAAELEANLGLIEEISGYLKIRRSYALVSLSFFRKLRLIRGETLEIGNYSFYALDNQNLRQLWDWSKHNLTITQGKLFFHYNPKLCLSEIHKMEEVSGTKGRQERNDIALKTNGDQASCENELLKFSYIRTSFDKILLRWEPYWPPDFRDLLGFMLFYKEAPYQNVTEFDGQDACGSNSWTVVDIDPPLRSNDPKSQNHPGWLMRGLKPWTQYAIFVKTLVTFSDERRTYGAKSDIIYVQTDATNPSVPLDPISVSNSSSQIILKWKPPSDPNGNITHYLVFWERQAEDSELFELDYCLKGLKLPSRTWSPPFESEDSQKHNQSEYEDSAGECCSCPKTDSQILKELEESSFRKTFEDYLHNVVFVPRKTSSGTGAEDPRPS
T1 sequence (P06213 763-1382 limits assumed): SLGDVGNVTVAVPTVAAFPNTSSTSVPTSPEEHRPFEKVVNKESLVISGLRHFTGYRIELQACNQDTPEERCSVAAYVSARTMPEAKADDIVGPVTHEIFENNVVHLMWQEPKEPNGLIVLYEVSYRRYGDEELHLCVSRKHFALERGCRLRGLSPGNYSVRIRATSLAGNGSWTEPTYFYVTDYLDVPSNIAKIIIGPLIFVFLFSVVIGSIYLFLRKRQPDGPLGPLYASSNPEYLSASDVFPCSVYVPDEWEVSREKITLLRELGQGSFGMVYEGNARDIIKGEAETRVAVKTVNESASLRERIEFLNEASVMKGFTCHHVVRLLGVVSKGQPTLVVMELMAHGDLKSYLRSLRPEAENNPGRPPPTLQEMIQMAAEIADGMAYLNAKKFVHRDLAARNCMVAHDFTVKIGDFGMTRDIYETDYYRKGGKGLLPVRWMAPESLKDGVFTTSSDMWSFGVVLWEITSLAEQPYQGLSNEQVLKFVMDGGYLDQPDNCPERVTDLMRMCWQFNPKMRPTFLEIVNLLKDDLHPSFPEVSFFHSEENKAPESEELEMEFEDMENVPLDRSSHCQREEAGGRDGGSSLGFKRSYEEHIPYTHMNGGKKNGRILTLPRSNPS
`CC(C)C[C@H](NC(=O)[C@@H](N)CCC(N)=O)C(=O)N[C@@H](CCC(=O)O)C(=O)N[C@@H](CCC(=O)O)C(=O)N[C@@H](CCC(=O)O)C(=O)N[C@@H](Cc1c[nH]c2ccccc12)C(=O)N[C@@H](C)C(=O)NCC(=O)N[C@H](C(=O)N[C@@H](CCC(N)=O)C(=O)N[C@H]1CSSC[C@@H](C(=O)N2CCC[C@H]2C(=O)N[C@@H](CO)C(=O)O)NC(=O)[C@H](CCC(=O)O)NC(=O)[C@H](CCCNC(=N)N)NC(=O)CNC(=O)[C@H](Cc2ccc(O)cc2)NC(=O)[C@H](C(C)C)NC(=O)[C@H](CCC(=O)O)NC1=O)C(C)C` [Peptide S226] (HELM PEPTIDE1{Q.L.E.E.E.W.A.G.V.Q.C.E.V.Y.G.R.E.C.P.S}$PEPTIDE1,PEPTIDE1,11:R3-18:R3$$$V2.0; N-terminus and C-terminus assumed; bridges inferred) showed a pKd of 5.80.
